Drawing on ChEMBL document CHEMBL5518163, “Brazilin-7-acetate, a novel potential drug of Parkinson's disease, hinders the formation of α-synuclein fibril, mitigates cytotoxicity, and decreases oxidative stress” (Eur J Med Chem, 2024), this text covers Activity, inhibition and ILS for 4 molecules.

Broadly, the inhibition is how much of the control response was suppressed.

Active and inactive are the calls of the source. The calls are words filed in the database; no cut-off is given here.

For test [1], the system named is Caenorhabditis elegans. Kind of test: Antioxidant activity against transgenic Caenorhabditis elegans NL5901 expressing YFP-tagged alpha-synuclein assessed as increase in lipid content relative to control. It is filed as functional.
Test [2] concerns Caenorhabditis elegans. Kind of test: Antioxidant activity against transgenic Caenorhabditis elegans NL5901 expressing YFP-tagged alpha-synuclein assessed as decrease in MDA content relative to control. In kind it is functional. Further details: scale not given: the % may be the effect or the level left.
The target in test [3] is Alpha-synuclein (Homo sapiens) (UniProt P37840). Briefly: Inhibition of recombinant alpha-synuclein (unknown origin) fibrillation at 1 to 20 uM measured after 30 mins by ThT fluorescence based spectrofluorometer analysis relative to control. Particulars: dose 1-20 µM.
Test [4] deals with Caenorhabditis elegans. Kind of test: In vivo inhibition of alpha-synuclein aggregation in transgenic Caenorhabditis elegans NL5901 expressing YFP-tagged alpha-synuclein assessed as reduction in number of alpha-synuclein aggregates plaques at 100 uM incubated for 5 days by fluorescence based confocal microscope analysis. In kind it is functional. The note with it: time 5.0 day.

In test [5] the test system is Caenorhabditis elegans. Briefly: Improvement in life span of transgenic Caenorhabditis elegans NL5901 expressing YFP-tagged alpha-synuclein assessed as increase in average lifespan at 100 uM (reference value: 8.52 day). Particulars: time 5 day. In kind it is functional.
Test [6] can be described thus: In vivo inhibition of alpha-synuclein aggregation in transgenic Caenorhabditis elegans NL5901 expressing YFP-tagged alpha-synuclein assessed as quantity of plaques at 100 uM on day 5 by fluorescence based confocal microscope analysis (reference value: 24.7). Particulars: time 5 day. In kind it is functional.
For test [7], the system named is Caenorhabditis elegans. Kind of test: Improvement in movement disorder in transgenic Caenorhabditis elegans NL5901 expressing YFP-tagged alpha-synuclein assessed as increase in number of bends at 100 uM measured on day 5 (reference value: 29.5). It is filed as functional. Particulars: time 5 day.
The subject of test [8] is PC-12. Briefly: Cytotoxicity against rat PC12 cells assessed as survival rate at 25 uM incubated for 10 days by MTT assay relative to control. Particulars: time 10 day. It is filed as functional. On the technique in general: Tetrazolium dyes change colour on reduction, which living cells bring about.
For test [9], the system named is Caenorhabditis elegans. Briefly: Inhibition of oxidative stress in transgenic Caenorhabditis elegans NL5901 expressing YFP-tagged alpha-synuclein assessed as reduction in ROS level by measuring fluorescence intensity at 100 uM incubated for 5 days by DHE staining based confocal laser scanning microscope analysis. It is filed as functional, organism-based. Particulars: time 5.0 day.

In test [10] the test system is PC-12. Kind of test: Protection against alpha-synuclein induced rat PC12 cells death assessed as survival rate at alpha-synuclein to compound molar ratio 1:0.5 pre-incubated with alpha-synuclein for 10 days followed by cell addition and measured after 48 hrs by MTT assay (reference value: 58.07%). It is filed as functional.
Test [11] concerns Caenorhabditis elegans. Kind of test: Improvement in life span of transgenic Caenorhabditis elegans NL5901 expressing YFP-tagged alpha-synuclein assessed as decrease in death rate at 100 uM incubated for 5 days. It is filed as functional, organism-based. The note with it: time 5.0 day.
In test [12] the test system is PC-12. Kind of test: Protection against alpha-synuclein induced rat PC12 cells death assessed as survival rate at alpha-synuclein to compound molar ratio 1:1 pre-incubated with alpha-synuclein for 10 days followed by cell addition and measured after 48 hrs by MTT assay (reference value: 58.07%). It is filed as functional.
The test system of test [13] is Caenorhabditis elegans. Briefly: Antioxidant activity against transgenic Caenorhabditis elegans NL5901 expressing YFP-tagged alpha-synuclein assessed as decrease in MDA content at 100 uM incubated for 5 days (reference value: 288.94 %). On the set-up: scale not given: the % may be the effect or the level left. Particulars: time 5 day. It is filed as functional.
Test [14] has as its system Caenorhabditis elegans. Kind of test: Antioxidant activity in transgenic Caenorhabditis elegans NL5901 expressing YFP-tagged alpha-synuclein assessed as increase in SOD activity at 100 uM incubated for 5 days (reference value: 33.32 %). It is filed as functional. Particulars: time 5 day.
Test [15] deals with Caenorhabditis elegans. Kind of test: In vivo inhibition of alpha-synuclein aggregation in transgenic Caenorhabditis elegans NL5901 expressing YFP-tagged alpha-synuclein at 100 uM under L4 stage to adult stage on day 5 and 10 by fluorescence based confocal microscope analysis. In kind it is functional. Particulars: time 5.0 day.
Test [16] is described as follows: In vivo inhibition of alpha-synuclein aggregation in transgenic Caenorhabditis elegans NL5901 expressing YFP-tagged alpha-synuclein assessed as quantity of plaques at 100 uM on day 10 by fluorescence based confocal microscope analysis (reference value: 31.5). It is filed as functional. Particulars: time 5 day.
The test system of test [17] is PC-12. Kind of test: Cytotoxicity against rat PC12 cells assessed as survival rate at 100 uM incubated for 10 days by MTT assay relative to control. It is filed as functional. The note with it: time 10 day.
Test [18] relates to PC-12. Kind of test: Protection against alpha-synuclein induced rat PC12 cells death assessed as survival rate at alpha-synuclein to compound molar ratio 1:2 pre-incubated with alpha-synuclein for 10 days followed by cell addition and measured after 48 hrs by MTT assay (reference value: 58.07%). It is filed as functional.
The test system of test [19] is Caenorhabditis elegans. Kind of test: Antioxidant activity against transgenic Caenorhabditis elegans NL5901 expressing YFP-tagged alpha-synuclein assessed as increase in lipid content by measuring fluorescence intensity at 100 uM incubated for 5 days by Nile Red staining based confocal laser scanning microscope analysis (reference value: 41.32 %). In kind it is functional. Particulars: time 5 day.

For test [20], the system named is PC-12. Briefly: Cytotoxicity against rat PC12 cells assessed as survival rate at 50 uM incubated for 10 days by MTT assay relative to control. In kind it is functional. Particulars: time 10 day.
Test [21] relates to Caenorhabditis elegans. Briefly: Improvement in movement disorder in transgenic Caenorhabditis elegans NL5901 expressing YFP-tagged alpha-synuclein assessed as increase in number of bends at 100 uM measured on day 10 (reference value: 11.1). The note with it: time 5 day. In kind it is functional.
Test [22] deals with Caenorhabditis elegans. Briefly: Antioxidant activity against transgenic Caenorhabditis elegans NL5901 expressing YFP-tagged alpha-synuclein assessed as increase in GSH-PX activity at 100 uM incubated for 5 days (reference value: 46.36 %). It is filed as functional. The note with it: time 5 day.
Test [23] relates to Caenorhabditis elegans. Kind of test: Inhibition of oxidative stress in Caenorhabditis elegans NL5901 expressing YFP-tagged alpha-synuclein assessed as decrease in ROS level by measuring average fluorescence intensity at 100 uM incubated for 5 days by DHE staining based confocal laser scanning microscope analysis (reference value: 1600%). In kind it is functional. Further details: scale not given: the % may be the effect or the level left. The note with it: time 5 day.

The test system of test [24] is Caenorhabditis elegans. Kind of test: Improvement in life span of transgenic Caenorhabditis elegans NL5901 expressing YFP-tagged alpha-synuclein assessed as increase in lifespan at 100 uM (reference value: 16 day). The note with it: time 5 day. In kind it is functional.
The test system of test [25] is PC-12. Briefly: Cytotoxicity against rat PC12 cells assessed as survival rate at 50 to 100 uM incubated for 10 days by MTT assay relative to control. It is filed as functional. Particulars: dose 50-100 µM, time 10 day.

In the case of `O=C(/C=C/c1ccc(O)c(O)c1)O[C@@H]1C[C@](O)(C(=O)O)C[C@@H](O)[C@H]1O` [CHLOROGENIC ACID], the values for the Activity in the test with Caenorhabditis elegans [1] and with Caenorhabditis elegans [2] were about 5% and about 50%, respectively.
As to `COc1ccc(-c2coc3cc(O)ccc3c2=O)cc1O`, the inhibition in [3] came to 82.3%.
For the molecule `CC(=O)Oc1ccc2c(c1)OC[C@]1(O)Cc3cc(O)c(O)cc3[C@H]21`, the inhibition result in the test on Caenorhabditis elegans [4] and in the test on Caenorhabditis elegans [15] was “Active” throughout. The ILS in the test on Caenorhabditis elegans [5] was found to be 10.35 days; with Caenorhabditis elegans [24], 19 days. The Activity was 7.2 in test [6]; 8.4 in the test on Caenorhabditis elegans [7]; 82.15% in the test on PC-12 [8]; 72.26% in the test on PC-12 [10]; 85.21% with PC-12 [12]; 133% with Caenorhabditis elegans [13]. Besides, the Activity was 60% in the test on Caenorhabditis elegans [14]; 16.2 in [16]; 60.46% in the test on PC-12 [17]; 93.51% in the test on PC-12 [18]; 57.69% in the test with Caenorhabditis elegans [19]; 66.74% in the test on PC-12 [20]. Besides, the Activity in the test on Caenorhabditis elegans [21] is reported as 7.6; in the test with Caenorhabditis elegans [22] it was 81.81%; with Caenorhabditis elegans [23], 723.6%. Besides, the outcome in the test on Caenorhabditis elegans [9] and in the test with Caenorhabditis elegans [11] was Active.
With `Oc1ccc2c(c1)OC[C@]1(O)Cc3cc(O)c(O)cc3[C@H]21` [BRAZILIN], the Activity in the test with PC-12 [8] is 82.15%; in the test with PC-12 [17] it was 60.46%; in the test with PC-12 [20] it was 66.74%; with PC-12 [25], about 20%.
